Measurements reported in patent EP4631962A1, “PEPTIDE FOR CARTILAGE REGENERATION, AND USES THEREOF” (Caregen Co., Ltd., priority 2022, dated 2024).
Where a SMILES comes first, the peptide text is derived from it. Where no end group is shown, it is not given here.

What was measured:
[1] = system: human-derived chondrocyte cells (C28/I2, human chondrocyte cell line); assay: CCK-8 assay, cytotoxicity in chondrocytes; format: cell-based; conditions: different concentrations, after 3 days, FIG. 1 and FIG. 2
Description: (§1) The cytotoxicity of Peptide-1 or Peptide-2 upon addition to human-derived chondrocyte cells (C28/I2, human chondrocyte cell line) and human adipose-derived mesenchymal stem cells (AD-MSC) was analyzed using a CCK-8 assay.
Specifically, human-derived chondrocytes were seeded in a 96-well plate at a density of 3 × 10^3 cells/well and cultured in DMEM medium (cat. 11995-065, Gibco) for 24 hours.

[2] = system: human adipose-derived mesenchymal stem cells (AD-MSC); assay: CCK-8 assay, cytotoxicity in AD-MSC; format: cell-based; conditions: different concentrations, after 7 days, FIG. 3
Description: as §1

Compound	toxicity (CCK-8 activity) [1]	toxicity (CCK-8 activity) [2]
N[C@@H](CCC(=O)O)C(=O)N[C@@H](CC(=O)O)C(=O)N[C@@H](CC(=O)O)C(=O)O [Peptide-2, EDD] (H-Glu-Asp-Asp-OH)	did not exhibit toxicity	
KRRRKRK [Peptide-1, KRRRKRK]	did not exhibit toxicity	did not exhibit toxicity
